In patent publication US6355799B1, “Substituted benzene compounds, process for their preparation, and herbicidal and defoliant compositions containing them” (ISK Americas Incorporated, priority 1997, dated 2002):

Experiments:
Type in all cases: in vivo
[1] = system: field corn (Zea mays L., var. Dekalb 535, CORN); experiment: Post-emerge test, crop safety; conditions: post-emerge, 14 days after application, rating scale 0-100
Procedure, shortened: (§1)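 Visual ratings on a 0-100 scale (0 no damage, 100 all plants dead) were taken at 14 days after treatment. Rates of 15-1000 g ai/ha in acetone, 187 l/ha, were sprayed onto soil one day after planting (pre-emerge) or onto 2-3 leaf plants with 0.25% v/v surfactant (post-emerge).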

[2] = system: upland rice (Oryza sp., var. Tebonnet, RICE); experiment: Post-emerge test, crop safety; conditions: post-emerge, 14 days after application, rating scale 0-100
Procedure, shortened: as §1

[3] = system: large crabgrass (Digitaria sanguinalis, DIGSA); experiment: Post-emerge test, greenhouse herbicide activity screening; conditions: post-emerge, 14 days after application, rating scale 0-100
Procedure, shortened: (§2)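 Sandy loam pots; pre-emerge: sown 1 d pre-spray, surface-watered after, then bottom-watered. Post-emerge: sown 8–21 d before, 2–3 leaf stage, + 0.25% v/v NIS, bottom-watered. Acetone, 187 l/ha track spray, 15–1000 g ai/ha. 0–100 injury score, day 14.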

[4] = system: common ragweed (Ambrosia artemisizfolia L., AMBEL); experiment: as above; conditions: post-emerge, 14 days after application, rating scale 0-100
Procedure, shortened: as §2

[5] = system: green foxtail (Setaria viridis, SETVI); experiment: as above; conditions: post-emerge, 14 days after application, rating scale 0-100
Procedure, shortened: as §2

[6] = system: ivyleaf morningglory (Ipomoea hederacea, IPOHE); experiment: as above; conditions: post-emerge, 14 days after application, rating scale 0-100
Procedure, shortened: as §2

[7] = system: lambsquarters (Chenopodium album, CHEAL); experiment: as above; conditions: post-emerge, 14 days after application, rating scale 0-100
Procedure, shortened: as §2

[8] = system: redroot pigweed (Amaranthus retroflexus, AMARE); experiment: as above; conditions: post-emerge, 14 days after application, rating scale 0-100
Procedure, shortened: as §2

[9] = system: sicklepod (Cassia obtusifolia, CASOB); experiment: as above; conditions: post-emerge, 14 days after application, rating scale 0-100
Procedure, shortened: as §2

[10] = system: johnsongrass (Sorghum halepense, SORHA); experiment: as above; conditions: post-emerge, 14 days after application, rating scale 0-100
Procedure, shortened: as §2

[11] = system: barnyardgrass (Echinochloa crus-galli, ECHCG); experiment: as above; conditions: post-emerge, 14 days after application, rating scale 0-100
Procedure, shortened: as §2

[12] = system: velvetleaf (Abutilon theophrasti, ABUTH); experiment: as above; conditions: post-emerge, 14 days after application, rating scale 0-100
Procedure, shortened: as §2

[13] = system: large crabgrass (Digitaria sanguinalis, DIGSA); experiment: Pre-emerge test, greenhouse herbicide activity screening; conditions: pre-emerge, 14 days after application, scale 0-100
Procedure, shortened: as §1

[14] = system: green foxtail (Setaria viridis, SETVI); experiment: as above; conditions: pre-emerge, 14 days after application, scale 0-100
Procedure, shortened: as §1

[15] = system: ivyleaf morningglory (Ipomoea hederacea, IPOHE); experiment: as above; conditions: pre-emerge, 14 days after application, scale 0-100
Procedure, shortened: as §1

[16] = system: lambsquarters (Chenopodium album, CHEAL); experiment: as above; conditions: pre-emerge, 14 days after application, scale 0-100
Procedure, shortened: as §1

[17] = system: sicklepod (Cassia obtusifolia, CASOB); experiment: as above; conditions: pre-emerge, 14 days after application, scale 0-100
Procedure, shortened: as §1

[18] = system: johnsongrass (Sorghum halepense, SORHA); experiment: as above; conditions: pre-emerge, 14 days after application, scale 0-100
Procedure, shortened: as §1

[19] = system: barnyardgrass (Echinochloa crus-galli, ECHCG); experiment: as above; conditions: pre-emerge, 14 days after application, scale 0-100
Procedure, shortened: as §1

[20] = system: velvetleaf (Abutilon theophrasti, ABUTH); experiment: as above; conditions: pre-emerge, 14 days after application, scale 0-100
Procedure, shortened: as §1

[21] = system: field corn (Zea mays L., var. Dekalb 535, CORN); experiment: Pre-emerge test, crop safety; conditions: pre-emerge, 14 days after application, scale 0-100
Procedure, shortened: as §1

[22] = system: upland rice (Oryza sp., var. Tebonnet, RICE); experiment: Pre-emerge test, crop safety; conditions: pre-emerge, 14 days after application, scale 0-100
Procedure, shortened: as §1

[23] = system: redroot pigweed (Amaranthus retroflexus, AMARE); experiment: Pre-emerge test, greenhouse herbicide activity screening; conditions: pre-emerge, 14 days after application, scale 0-100
Procedure, shortened: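 Herbicidal damage is scored 0 (none) to 100 (complete plant death) two weeks after a simulated field spray. Rates span 15–1000 g ai/ha, delivered in acetone at 187 l/ha. For post-emergence treatments, plants have 2–3 leaves and the spray carries 0.25% v/v non-ionic surfactant.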

SMILES: COc1c(Cl)cc(F)c(-n2c(=O)cc(C(F)(F)F)n(C)c2=O)c1NC(=O)Cc1ccccc1 [2-151]
- CORN phytotoxicity rating (crop damage) ([1]; 63 g ai/ha): 0
- CORN phytotoxicity rating (crop damage) ([1]; 250 g ai/ha): 0
- RICE phytotoxicity rating (crop damage) ([2]; 63 g ai/ha): 0
- RICE phytotoxicity rating (crop damage) ([2]; 250 g ai/ha): 10
- DIGSA phytotoxicity rating ([3]; 63 g ai/ha): 0
- DIGSA phytotoxicity rating ([3]; 250 g ai/ha): 0
- AMBEL phytotoxicity rating ([4]; 63 g ai/ha): 20
- AMBEL phytotoxicity rating ([4]; 250 g ai/ha): 30
- SETVI phytotoxicity rating ([5]; 63 g ai/ha): 0
- SETVI phytotoxicity rating ([5]; 250 g ai/ha): 0
- IPOHE phytotoxicity rating ([6]; 63 g ai/ha): 30
- IPOHE phytotoxicity rating ([6]; 250 g ai/ha): 100
- CHEAL phytotoxicity rating ([7]; 63 g ai/ha): 10
- CHEAL phytotoxicity rating ([7]; 250 g ai/ha): 10
- AMARE phytotoxicity rating ([8]; 63 g ai/ha): 10
- AMARE phytotoxicity rating ([8]; 250 g ai/ha): 20
- CASOB phytotoxicity rating ([9]; 63 g ai/ha): 10
- CASOB phytotoxicity rating ([9]; 250 g ai/ha): 50
- SORHA phytotoxicity rating ([10]; 63 g ai/ha): 0
- SORHA phytotoxicity rating ([10]; 250 g ai/ha): 0
- ECHCG phytotoxicity rating ([11]; 63 g ai/ha): 0
- ECHCG phytotoxicity rating ([11]; 250 g ai/ha): 0
- ABUTH phytotoxicity rating ([12]; 63 g ai/ha): 0
- ABUTH phytotoxicity rating ([12]; 250 g ai/ha): 50
- phytotoxicity rating DIGSA ([13]; 63 g ai/ha): 0
- phytotoxicity rating DIGSA ([13]; 250 g ai/ha): 40
- phytotoxicity rating SETVI ([14]; 63 g ai/ha): 0
- phytotoxicity rating SETVI ([14]; 250 g ai/ha): 0
- phytotoxicity rating IPOHE ([15]; 63 g ai/ha): 0
- phytotoxicity rating IPOHE ([15]; 250 g ai/ha): 40
- phytotoxicity rating CHEAL ([16]; 63 g ai/ha): 0
- phytotoxicity rating CHEAL ([16]; 250 g ai/ha): 80
- phytotoxicity rating CASOB ([17]; 63 g ai/ha): 0
- phytotoxicity rating CASOB ([17]; 250 g ai/ha): 70
- phytotoxicity rating SORHA ([18]; 63 g ai/ha): 0
- phytotoxicity rating SORHA ([18]; 250 g ai/ha): 40
- phytotoxicity rating ECHCG ([19]; 63 g ai/ha): 0
- phytotoxicity rating ECHCG ([19]; 250 g ai/ha): 0
- phytotoxicity rating ABUTH ([20]; 63 g ai/ha): 30
- phytotoxicity rating ABUTH ([20]; 250 g ai/ha): 100
- phytotoxicity rating CORN (crop damage) ([21]; 63 g ai/ha): 0
- phytotoxicity rating CORN (crop damage) ([21]; 250 g ai/ha): 30
- phytotoxicity rating RICE (crop damage) ([22]; 63 g ai/ha): 0
- phytotoxicity rating RICE (crop damage) ([22]; 250 g ai/ha): 30
- phytotoxicity rating AMARE ([23]; 63 g ai/ha): 0
- phytotoxicity rating AMARE ([23]; 250 g ai/ha): 0

SMILES: COc1c(Cl)cc(F)c(-n2c(=O)cc(C(F)(F)F)n(C)c2=O)c1NC(=O)c1ccc2c(Br)cccc2c1 [2-158]
- CORN phytotoxicity rating (crop damage) ([1]; 63 g ai/ha): 0
- CORN phytotoxicity rating (crop damage) ([1]; 250 g ai/ha): 0
- RICE phytotoxicity rating (crop damage) ([2]; 63 g ai/ha): 20
- RICE phytotoxicity rating (crop damage) ([2]; 250 g ai/ha): 60
- DIGSA phytotoxicity rating ([3]; 63 g ai/ha): 0
- DIGSA phytotoxicity rating ([3]; 250 g ai/ha): 30
- AMBEL phytotoxicity rating ([4]; 63 g ai/ha): 50
- AMBEL phytotoxicity rating ([4]; 250 g ai/ha): 100
- SETVI phytotoxicity rating ([5]; 63 g ai/ha): 10
- SETVI phytotoxicity rating ([5]; 250 g ai/ha): 70
- IPOHE phytotoxicity rating ([6]; 63 g ai/ha): 20
- IPOHE phytotoxicity rating ([6]; 250 g ai/ha): 80
- CHEAL phytotoxicity rating ([7]; 63 g ai/ha): 90
- CHEAL phytotoxicity rating ([7]; 250 g ai/ha): 95
- AMARE phytotoxicity rating ([8]; 63 g ai/ha): 100
- AMARE phytotoxicity rating ([8]; 250 g ai/ha): 100
- CASOB phytotoxicity rating ([9]; 63 g ai/ha): 90
- CASOB phytotoxicity rating ([9]; 250 g ai/ha): 100
- SORHA phytotoxicity rating ([10]; 63 g ai/ha): 0
- SORHA phytotoxicity rating ([10]; 250 g ai/ha): 0
- ECHCG phytotoxicity rating ([11]; 63 g ai/ha): 0
- ECHCG phytotoxicity rating ([11]; 250 g ai/ha): 50
- ABUTH phytotoxicity rating ([12]; 63 g ai/ha): 95
- ABUTH phytotoxicity rating ([12]; 250 g ai/ha): 100
- phytotoxicity rating DIGSA ([13]; 63 g ai/ha): 80
- phytotoxicity rating DIGSA ([13]; 250 g ai/ha): 95
- phytotoxicity rating SETVI ([14]; 63 g ai/ha): 0
- phytotoxicity rating SETVI ([14]; 250 g ai/ha): 95
- phytotoxicity rating IPOHE ([15]; 63 g ai/ha): 0
- phytotoxicity rating IPOHE ([15]; 250 g ai/ha): 0
- phytotoxicity rating CHEAL ([16]; 63 g ai/ha): 100
- phytotoxicity rating CHEAL ([16]; 250 g ai/ha): 100
- phytotoxicity rating CASOB ([17]; 63 g ai/ha): 0
- phytotoxicity rating CASOB ([17]; 250 g ai/ha): 0
- phytotoxicity rating SORHA ([18]; 63 g ai/ha): 0
- phytotoxicity rating SORHA ([18]; 250 g ai/ha): 20
- phytotoxicity rating ECHCG ([19]; 63 g ai/ha): 50
- phytotoxicity rating ECHCG ([19]; 250 g ai/ha): 80
- phytotoxicity rating ABUTH ([20]; 63 g ai/ha): 80
- phytotoxicity rating ABUTH ([20]; 250 g ai/ha): 95
- phytotoxicity rating CORN (crop damage) ([21]; 63 g ai/ha): 0
- phytotoxicity rating CORN (crop damage) ([21]; 250 g ai/ha): 0
- phytotoxicity rating RICE (crop damage) ([22]; 63 g ai/ha): 0
- phytotoxicity rating RICE (crop damage) ([22]; 250 g ai/ha): 10
- phytotoxicity rating AMARE ([23]; 63 g ai/ha): 100
- phytotoxicity rating AMARE ([23]; 250 g ai/ha): 100
